Data published in patent publication US9018219B2, “Fused aminodihydropyrimidine derivative” (Shionogi & Co., Ltd., priority 2010, dated 2015).
pIC50: −log10 of the molar value.

What was measured:
[1] = system: Neuroblastoma SH-SY5Y cells (SH/APPwt) with human wild-type β-APP excessively expressed; assay: Measurement of β-amyloid (Aβ) production inhibiting effect in cell; assay type: cell-based; settings: 24 hours incubation, Amyloid β 1-40 HTRF in culture supernatant, read-out: IC50 (amount needed to inhibit Aβ production by 50%)
Description: Neuroblastoma SH-SY5Y cells (SH/APPwt) with human wild-type β-APP excessively expressed therein were prepared at 8×10^5 cells/mL, and 150 μl portions thereof were inoculated into each well of a 96-well culture plate (Falcon). The cells were cultured for 2 hours at 37° C. in a 5% gaseous carbon dioxide incubator. Then, a solution which have been preliminarily prepared by adding and suspending the compound of the present invention (DMSO (dimethyl sulfoxide) solution) so as to be 2 μl/50 μl medium was added to the cell sap. Namely, the final DMSO concentration was 1%, and the amount of the cell culture was 200 μl. After the incubation was performed for 24 hours from the addition of the test compound, 100 μl of the culture supernatant was collected from each fraction. The amount of the Aβ in each fraction was measured.
The Aβ amount was measured as follows. 10 μl of a homogeneous time resolved fluorescence (HTRF) measurement reagent (Amyloid β 1-40 peptide; IBA Molecular Holding, S.A.) and 10 μl of the culture supernatant were put into a 384-well half area microplate (black microplate, Costar) and mixed with each other, and then left standing overnight at 4° C. while the light was shielded. Then, the fluorescence intensity (excitation wavelength: 337 nm, measurement wavelength: 620 nm and 665 nm) was measured with Wallac 1420 multilabel counter (Perkin Elmer life sciences). The Aβ amount was determined from the count rate at each measurement wavelength (10000×Count 665/Count 620), and the amount needed to inhibit Aβ production by 50% (IC50) was calculated from at least six different dosages.

[2] = Brain distribution studies; assay type: in vivo; settings: brain/plasma; rat, intravenous 0.5 mg/mL/kg, 30 minutes later; read-out: brain Kp value (area ratio brain/plasma)
Description: Compound of the present invention is intravenously administered to a rat at 0.5 mg/mL/kg dosage.
The brain is enucleated and 20-25% of homogenate thereof is prepared with distilled water.
The obtained blood is used as plasma after centrifuging. To the brain sample is added the control plasma at 1:1. To the plasma samples is added the control brains at 1:1. Each sample is measured using LC/MS/MS. The obtained area ratio (a brain/plasma) is used for the brain Kp value.

Recombinant human BACE-1 = biological target: T1, Recombinant human BACE-1 (Homo sapiens, UniProt P56817); assay: Assay of BACE1 inhibitory activity; assay type: biochemical; settings: Recombinant human BACE1 7.4 nmol/L, substrate peptide 18 nmol/L, pH 5.0, 30° C. for 3 hours; read-out: IC50 (50% inhibitory concentration against the enzymatic activity)
T1 construct: purchased R&D Systems
Description: 48.5 μL of substrate peptide solution (Biotin-XSEVNLDAEFRHDSGC-Eu: X=ε-amino-n-capronic acid, Eu=Europium cryptate) was added to each well of 96-hole half-area plate (a black plate: Costar), and after addition of 0.5 μl of the compound of the present invention (N,N′-dimethylformamide solution) and 1 μl of Recombinant human BACE-1 (R&D Systems), the reaction mixture was incubated at 30° C. for 3 hours. The substrate peptide was synthesized by reacting Cryptate TBPCOOH mono SMP (CIS bio international) with Biotin-XSEVNLDAEFRHDSGC (Peptide Institute, Inc.). The final concentrations of the substrate peptide and Recombinant human BACE1 were adjusted to 18 nmol/L and 7.4 nmol/L, respectively, and the reaction was performed in sodium acetate buffer (50 mmol/L sodium acetate, pH 5.0, 0.008% Triton X-100). After the incubation for reaction, 50 μl of 8.0 μg/ml Streptavidin-XL665 (CIS bio international) dissolved in phosphate buffer (150 mmol/L K2HPO4—KH2PO4, pH 7.0, 0.008% Triton X-100, 0.8 mol/L KF) was added to each well and left stand at 30° C. for 1 hour. After then, fluorescence intensity was measured (excitation wavelength: 320 nm, measuring wavelength: 620 nm and 665 nm) using Wallac 1420 multilabel counter (Perkin Elmer life sciences). Enzymatic activity was determined from counting ratio of each wavelength (10,000×Count 665/Count 620) and 50% inhibitory concentration against the enzymatic activity (IC50) was calculated.

CYP3A4 = CYP3A4 (Homo sapiens, UniProt P08684); assay: CYP3A4 fluorescent MBI test; assay type: in vitro ADME; design: host or cells: Escherichia coli; settings: 7-BFC substrate, pre-reaction 0 or 30 minutes, CYP3A4 expressed in Escherichia coli
Description: The CYP3A4 fluorescent MBI test is a test of investigating enhancement of CYP3A4 inhibition of the compound of the present invention by a metabolism reaction. 7-benzyloxytrifluoromethylcoumarin (7-BFC) is debenzylated by the CYP3A4 enzyme (enzyme expressed in Escherichia coli) and a metabolite, 7-hydroxytrifluoromethylcoumarin (7-HFC) which emits fluorescent light is produced. The test is performed using 7-HFC production reaction as an index.
The reaction conditions are as follows: substrate, […] 7-BFC; pre-reaction time, 0 or 30 minutes; reaction time, 15 minutes; reaction temperature, 25° C. […]
An enzyme in a K-Pi buffer (pH 7.4) and the compound of the present invention solution as a pre-reaction solution were added to a 96-well plate at the composition of the pre-reaction, a part of it was transferred to another 96-well plate so that it was 1/10 diluted by a substrate in a K-Pi buffer, NADPH as a co-factor was added to initiate a reaction as an index (without preincubation) and, after a predetermined time of a reaction, acetonitrile/0.5 mol/L Tris (trishydroxyaminomethane)=4/1 was added to stop the reaction. […] For the plate on which each index reaction had been performed, a fluorescent value of 7-HFC which is a metabolite was measured with a fluorescent plate reader. […]

[3] = Solubility test (turbidity, Test Example 7-1); assay type: physicochemical; settings: pH 6.8, aqueous buffer, kinetic from dmso stock; JP-II medium, 2% DMSO, turbidity after 4 hours; read-out: solubility assessed by 3 stages
Description: A 2-fold dilution series (12 points) of a 10 mM solution of a compound of the present invention in DMSO was added to a medium (JP-I, JP-II) (2%), and solubility was assessed by 3 stages (High; >40 μM, Medium; 3-40 Low; <3 μM) from a turbidity after 4 hours.

T1 sequence (P56817 46-501): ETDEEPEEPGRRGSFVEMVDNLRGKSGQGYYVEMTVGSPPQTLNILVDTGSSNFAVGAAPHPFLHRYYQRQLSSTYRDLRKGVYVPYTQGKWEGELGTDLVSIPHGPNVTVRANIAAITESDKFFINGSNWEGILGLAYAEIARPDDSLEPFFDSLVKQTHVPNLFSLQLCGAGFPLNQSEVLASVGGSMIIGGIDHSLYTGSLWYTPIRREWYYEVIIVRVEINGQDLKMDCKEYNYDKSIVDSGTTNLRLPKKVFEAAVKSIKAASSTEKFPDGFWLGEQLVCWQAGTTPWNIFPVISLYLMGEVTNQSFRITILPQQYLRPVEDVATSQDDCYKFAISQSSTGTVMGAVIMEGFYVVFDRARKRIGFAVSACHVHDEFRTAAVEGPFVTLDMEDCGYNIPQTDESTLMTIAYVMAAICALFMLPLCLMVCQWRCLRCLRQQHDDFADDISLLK
CYP3A4, sequence (P08684 whole entry): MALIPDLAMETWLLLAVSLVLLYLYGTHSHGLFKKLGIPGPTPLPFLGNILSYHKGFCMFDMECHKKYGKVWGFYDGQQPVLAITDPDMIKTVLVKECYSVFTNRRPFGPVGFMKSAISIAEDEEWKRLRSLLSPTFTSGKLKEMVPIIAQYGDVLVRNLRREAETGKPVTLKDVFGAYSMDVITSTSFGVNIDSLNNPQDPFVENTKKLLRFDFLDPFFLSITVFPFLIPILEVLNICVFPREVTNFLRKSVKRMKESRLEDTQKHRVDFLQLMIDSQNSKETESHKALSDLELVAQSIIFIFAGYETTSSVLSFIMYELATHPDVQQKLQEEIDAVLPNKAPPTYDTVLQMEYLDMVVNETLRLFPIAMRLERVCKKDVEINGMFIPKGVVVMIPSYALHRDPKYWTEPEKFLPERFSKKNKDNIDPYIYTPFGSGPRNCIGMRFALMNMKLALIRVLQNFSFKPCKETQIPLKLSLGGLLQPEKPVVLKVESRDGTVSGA

For `CC1(c2cc(-c3cccnc3F)ccc2F)Cc2cncn2C(N)=N1` (stereo not shown) [Compound I-7], the pIC50 [1] was ≥ 6.00, the Kp at 0.5 h [2] was 1.7 and the pIC50 (Recombinant human BACE-1) was ≥ 6.00.

For `CC#Cc1cncc(-c2csc([C@]3(C)Cc4nccn4C(N)=N3)c2)c1` [Compound I-4], the pIC50 [1] was ≥ 6.00 and the pIC50 (Recombinant human BACE-1) was ≥ 6.00.

With `CC1(c2cc(NC(=O)c3ccc(C#N)cn3)ccc2F)Cc2cncn2C(N)=N1` (stereo not shown) [Compound I-6] the pIC50 [1] was ≥ 6.00 and the pIC50 (Recombinant human BACE-1) was ≥ 6.00.

For `C[C@@]1(c2cc(NC(=O)c3ccc(C#N)cn3)ccc2F)Cc2ccnn2C(N)=N1` [Compound I-3], the pIC50 [1] was 8.52 and the pIC50 (Recombinant human BACE-1) was 7.44.

With `C[C@@]1(c2cc(NC(=O)c3ccc(C#N)cn3)ccc2F)Cc2nccn2C(N)=N1` [Compound I-1] the “CYP3A4 fluorescent MBI: difference between IC50 values without and with preincubation” value (CYP3A4) was “(−) (when the difference is 3 μM or less, this was defined as (−))”, the pIC50 [1] was ≥ 6.00 and the pIC50 (Recombinant human BACE-1) was ≥ 6.00. For the same molecule, the solubility at 4 h [3] was > 40 µM.
